Reference: PubChem BioAssay (NCI)
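The compound was tested at five concentrations on cells cultured in 96-well plates, with a 48-hour exposure period. Here, GI50 denotes the concentration required for 50% inhibition of growth. The concentration for full growth arrest is given as TGI.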

Columns and labels:
Experiment in all cases: NCI tumour cell line growth inhibition, 48 h
A549 NSCLC = tested on: A549 NSCLC
CAKI-1 renal = tested on: CAKI-1 renal
HCT-15 colon = tested on: HCT-15 colon
HOP-62 NSCLC = tested on: HOP-62 NSCLC
M14 melanoma = tested on: M14 melanoma
MDA-MB-435 = tested on: MDA-MB-435
NCI-H522 lung = tested on: NCI-H522 lung
OVCAR-8 ovarian = tested on: OVCAR-8 ovarian
SK-MEL-2 melanoma = tested on: SK-MEL-2 melanoma
UO-31 renal = tested on: UO-31 renal

Row | Structure (SMILES) | GI50 (A549 NSCLC) [µM] | TGI (A549 NSCLC) [µM] | GI50 (CAKI-1 renal) [µM] | TGI (CAKI-1 renal) [µM] | GI50 (HCT-15 colon) [µM] | TGI (HCT-15 colon) [µM] | GI50 (HOP-62 NSCLC) [µM] | TGI (HOP-62 NSCLC) [µM] | GI50 (M14 melanoma) [µM] | TGI (M14 melanoma) [µM] | GI50 (MDA-MB-435) [µM] | TGI (MDA-MB-435) [µM] | GI50 (NCI-H522 lung) [µM] | TGI (NCI-H522 lung) [µM] | GI50 (OVCAR-8 ovarian) [µM] | TGI (OVCAR-8 ovarian) [µM] | GI50 (SK-MEL-2 melanoma) [µM] | TGI (SK-MEL-2 melanoma) [µM] | GI50 (UO-31 renal) [µM] | TGI (UO-31 renal) [µM]
1 | O=C1NC(O)C(c2c[nH]c3ccccc23)=C1c1c[nH]c2ccccc12 (centres undefined) | > 25 | > 25 | > 25 | > 25 | 18.4 | > 25 | > 25 | > 25 | > 25 | > 25 | > 25 | > 25 | > 25 | > 25 | > 25 | > 25 | > 25 | > 25 | 15.7 | > 25
2 | Cc1cc2nc3c4cc(N)ccc4n(CCN(C)C)c3nc2cc1C | 0.45 | 6.14 | 0.462 | 6.28 | 0.499 | 10.2 | 0.687 | 14.7 | 1.12 | 2.88 | 0.979 | 3.25 | 0.721 | 5.63 | 0.584 | 12.8 | 1.34 | 3.89 | 0.439 | 4.8
3 | COc1cc(-c2nn(-c3cccc(NC(=O)Nc4cc(C(F)(F)F)cc(C(F)(F)F)c4)c3)cc2-c2ccncc2)ccc1Cl | 0.438 | 2.8 | 0.852 | 2.93 | 0.756 | 2.97 | 0.749 | 1.55 | 0.826 | 4.68 | 0.772 | 1.85 | 0.356 | 1.43 | 0.524 | 3.98 | 1.01 | 2.04 | 0.612 | 1.52
4 | O=C(Nc1cc(Cl)cc(Cl)c1)c1ccc(NC2=C(Cl)C(=O)N(Cc3ccc(Cl)cc3Cl)C2=O)cc1 | > 100 | > 100 | 36.8 | > 100 | 7.06 | 95.3 | 34.1 | > 100 | 10.1 | 61.7 | 25 | 57.9 | 15.7 | 34.3 | 21.6 | 87.2 | 23.5 | 43.9 | 1.7 | 3.25
5 | CC(C)[C@H](CO)Nc1nc(Nc2ccc(C(=O)NCCNS(=O)(=O)c3cccc4c(N(C)C)cccc34)c(Cl)c2)c2ncn(C(C)C)c2n1 | 2.91 | > 77.7 | 5.78 | > 100 | 4.29 | > 100 | 3.69 | > 100 | 3.24 | > 100 | 2.43 | > 44.2 | 2.19 | 6.1 | 3.18 | > 100 | 2.67 | 7.73 | 9.78 | > 100
6 | O=C1C(Cl)=C(Nc2cccc(Cl)c2)C(=O)N1Cc1ccccc1Cl | 10.2 | 26.5 | 1.68 | 10.3 | 3.96 | 38.2 | 15.8 | 37.9 | 4.41 | 19.4 | 1.01 | 4.09 | 2.87 | 23.3 | 1.82 | 17.1 | 4.33 | 23.1 | 1.47 | 5.01
7 | CCCc1cc2c(=O)c(C(=O)OC)c[nH]c2cc1N(CC)CC | 38.3 | > 100 | 11.7 | 29.1 | 76.7 | > 100 | 20.4 | 37.9 | 57 | > 100 | 47.5 | > 100 | 38.5 | > 100 | 29.4 | 95.7 | 36.1 | 97.8 | 28.5 | > 100
8 | COc1ccc(/C=C/C(=O)c2ccc(SC)cc2)cc1OC | 15.8 | 42.7 | 7.5 | 25.6 | 3.1 | 13.3 | 18.8 | 42.2 | 3.83 | 14.2 | 3.44 | 13.4 | 5 | 27.4 | 16.5 | 44 | 19.4 | 42.6 | 13.3 | 30.2
9 | Nc1c(Br)cc(Br)c2c1[nH]c(=O)c1ccccc12 | 6.7 | > 100 | 3.69 | 21.3 | 60.1 | > 100 | 2.56 | 6.39 | 9.89 | > 100 | 19.5 | > 100 | 50.9 | > 100 | 4.04 | 26.5 | 20.7 | 60.3 | 2.17 | 5.9
10 | CC[C@H](Nc1nc(NCc2cnc(C)cc2C)c2ncn(C(C)C)c2n1)[C@@H](C)O | 0.353 | > 100 | 0.269 | > 100 | 0.349 | 4.89 | 0.356 | > 59.7 | 0.318 | 4.31 | 0.362 | 10.8 | 0.262 | 1.31 | 0.382 | > 100 | 0.549 | 3.01 | 0.272 | > 100
11 | CC(C)(C)c1nn(-c2ccccc2)c2c1C(=O)CSC(c1ccccc1Cl)N2 (centres undefined) | 1.67 | 14 | 1.24 | 22.2 | 2 | 16 | 4.47 | 21.8 | 1.18 | 6.45 | 0.304 | 1.31 | 0.65 | 7.34 | 6.65 | 30.2 | 2.1 | 13.4 | 3.03 | 19.1
12 | COc1cc2cc(Oc3ccc(NC(=O)Nc4cccc(C(F)(F)F)c4)cc3)c(C)nc2cc1OC | 1.47 | 6.49 | 1.32 | 4.29 | 1.85 | 22.2 | 2.33 | 8.44 | 1.67 | 7.67 | 1.63 | 10.1 | 1.32 | 4.49 | 1.71 | 6.28 | 1.28 | 2.87 | 1.98 | 10.8
13 | O=c1c2ccccc2n(C[C@H]2CO2)c2ccccc12 | 2.45 | 7.28 | 1.83 | 8.26 | 1.68 | 5.27 | 2.13 | 5.84 | 1.67 | 3.9 | 1.61 | 3.24 | 1.61 | 3.74 | 1.26 | 5.35 | 1.96 | 3.83 | 1.72 | 4.96
14 | Cc1ccc(-n2c3c(c4c(CN(C)C)c(O)ccc42)CCc2ccccc2C3=O)cc1 | 16.7 | 33.8 | 17.2 | 44.1 | 18.3 | 35.8 | 17.8 | 40.9 | 16.1 | 30.2 | 15.2 | 30.4 | 14.9 | 32.7 | 16.9 | 41.8 | 19.9 | 44.5 | 15.9 | 38.2
15 | O=c1ccn(C2OC(CO/N=C/c3ccc(O)c(O)c3O)C(O)C2O)c(=O)[nH]1 (centres undefined) | 54.3 | > 100 | 49.7 | > 100 | 20.5 | 50.4 | 67.6 | > 100 | 39 | > 100 | 15.8 | 31.3 | 50.6 | > 100 | 22.3 | 56 | 57.4 | > 100 | 17.2 | 31.6
16 | C/C(=N/Nc1nc2ccccc2n1C)c1ccccn1 | 0.106 | 14.5 | 0.104 | 2.14 | 0.0171 | 27.9 | 0.185 | 4.49 | 0.0489 | 0.285 | 0.229 | 20.7 | 0.223 | 9.34 | 0.118 | 16.2 | 0.706 | 22.3 | 0.0672 | 1.59
17 | COC1CC2CCC(C)C(O)(O2)C(=O)C(=O)N2CCCCC2C(=O)OC(C(C)CC2CCC(O)C(OC)C2)CC(=O)C(C)C=C(C)C(O)C(OC)C(=O)C(C)CC(C)/C=C/C=C/C=C1C (centres undefined) | 0.0784 | 41.6 | 2.58 | 47.8 | 0.0813 | 14.7 | 0.159 | 9.96 | 5.41 | 13.3 | 0.838 | 14.9 | 1.99 | 11.3 | < 0.005 | 24.6 | 5.19 | 12.3 | < 0.005 | 8.08
18 | Ic1ccccc1-c1ccccc1 | > 100 | > 100 | > 100 | > 100 | > 100 | > 100 | > 100 | > 100 | > 100 | > 100 | > 100 | > 100 | > 100 | > 100 | > 100 | > 100 | 76 | > 100 | 74.5 | > 100
19 | CC1=C2C[C@H]3[C@@H](CC[C@@H]4CC(NS(C)(=O)=O)CC[C@@]43C)[C@@H]2CC[C@@]2(C1)O[C@@H]1C[C@H](C)CN[C@H]1[C@H]2C (some centres undefined) | 4.26 | 17.5 | 7.63 | 22 | 5.9 | 21.4 | 11.3 | 24.8 | 7.92 | 22.6 | 8.1 | 22.8 | 14.3 | 29 | 12 | 25.7 | 6.76 | 15.4 | 10.7 | 23.5
20 | CC(C)(O)CS(=O)(=O)Nc1ccc2c(c1)CCN(C(=O)COc1cccnc1)C2 | > 100 | > 100 | > 92.4 | > 100 | 0.476 | > 100 | 99.4 | > 100 | 0.153 | > 100 | 0.518 | > 100 | – | > 100 | 0.0177 | > 100 | > 100 | > 100 | > 100 | > 100
21 | O=C1/C(=C/c2ccccc2)CN(C(=O)c2cccnc2)C/C1=C\c1ccccc1 | 3.1 | 12.2 | 2.83 | 10.3 | 0.331 | 1.38 | 3.02 | 10.4 | 1.93 | 5.17 | 0.483 | 2.15 | 1.57 | 3.66 | 2.08 | 11.8 | 6.72 | 20.6 | 1.4 | 2.9
